According to patent publication US20080255244A1, “CaM Kinase II Inhibitor Improves Retinoic Acid Therapy and Inhibits the Proliferation of Myeloid Leukemia Cells” (Fred Hutchinson Cancer Research Center, priority 2007, published 2008):
pIC50: −log10 of the molar value.

Key:
[1] = system: autophosphorylated CaMKIIγ in HL60 cells; test: Western blot of CaMKIIγ autophosphorylation in HL60 cells; type: cell-based, human; settings: for activated, autophosphorylated CaMKIIγ level: phospho-T286/7 antibody, ATRA 1 μM, TPA 0.1 μM
Procedure: (§1) FIG. 7. KN-62 regulates the differentiation of myeloid leukemia cell lines. (A) Wright Giemsa-stained HL-60 cells either (a) uninduced or treated for five days with (b) KN62 or (c) ATRA. (d) CD11b expression in HL-60 cells after five days exposure to KN62 (5 μM) or ATRA (1 μM). (B) Wright-Giemsa stained NB4 cells treated for five days with KN-62 (5 μM) and ATRA as indicated. […] (C) Cd11b expression of NB4 cells treated for five days with the indicated concentrations of RA and/or KN-62. (D) Western blots with the indicated antibodies were performed on HL60 cell lysates following incubation with KN62 for the indicated period of time. (E) Western blots of NB4 cell lysates following a five day incubation with the indicated compounds.
(§2) FIG. 9. Terminal differentiation/apoptosis of myeloid leukemia cells is associated with decreased CaMKIIγ activation. (A) Lysates from the HL60, NB4 and U937 myeloid cell lines treated with ATRA (1 μM) for the indicated period of time were subjected to Western blots. (B) Lysates from the indicated myeloid cell lines treated for five days with the indicated concentration of ATRA were subjected to Western blots. (C) Lysates from HL60 cells treated with TPA (0.1 μM) for the indicated time were subjected to Western blots. (D) Lysates from NB4 cells treated with arsenic trioxide (1 uM) for the indicated time were subjected to Western blots.
(§3) Protein extracts, Western blotting and co-immunoprecipitations. Westerns and co-immunoprecipitations were performed as previously detailed (Si, J., and Collins, S. J., Blood 100:4401-4409 (2002)).
(§4) Antibodies and Western blots. Protein extracts, immunoprecipitations and Western blots were performed as previously detailed (Si J, Collins S J. IL-3-induced enhancement of retinoic acid receptor activity is mediated through Stat5, which physically associates with retinoic acid receptors in an IL-3-dependent manner. Blood 100: 4401-9 (2002)). Antibodies against CaMKI, CaMKIIγ, CaMKIV, c-myc, Stat3, Stat5, calmodulin, as well as the phosphospecific CaMKII (T286, 287) and phosphospecific CaMKI (T177) antibodies were from Santa Cruz Biotechnology. Antibodies against phospho-Stat1 (Ser727), phospho-Stat3 (Ser727 and Tyr 705), phospho-Stat5 (Tyr 694), phospho-p44/42 MAP kinase (Thr202/Tyr 204), p44/42 MAP kinase, phospho-p38 MAP kinase (Thr 180/Tyr 182), phospho-GSK3β (Ser9) were from Cell Signaling Technology. Antibodies against Stat1, GSK3β, β-catenin, PP2Ac, and cyclin D1 were from BD Biosciences.

[2] = system: autophosphorylated CaMKIIγ in K562 cells; test: Western blot of CaMKIIγ autophosphorylation in K562 cells; type: cell-based, human; settings: gleevec 5 uM, ATRA five days
Procedure: as §2
FIG. 10. Inhibiting bcr-abl activity/expression inhibits CaMKIIγ activation. (A) Lysates from K562 cells undergoing growth arrest following treatment with gleevec (5 uM) for the indicated times were subjected to Western blots. (B) Lysates from TonB210.1 cells depleted of doxycycline for the indicated period of time were subjected to Western blots. (C) IL-3 dependent TonB210.1 cells were deprived of IL-3 for 24 hours (lane 1). The cells were then treated with the indicated compounds simultaneously with the addition of doxycycline (lanes 2-8). After 24 hours cell lysates were harvested and subjected to Western blots with the indicated CaMKII antibodies. (D) K562 cells were cultured for 48 hours with the indicated chemical inhibitors of specific signal transduction pathways. Cell lysates were harvested and subjected to Western blot analysis.
FIG. 12. CaMKII regulates multiple signal transduction pathways in myeloid cells. (A,B) Lysates from K562 cells cultured for the indicated time in KN93 were subjected to Western blots. (C) The K562 cells transduced as described in Materials and Methods with either (i) the doxycycline (DOX) inducible expression vector/transactivator harboring the full length, Lys^43 mutated, kinase dead CaMKIIγ (kdCaMKIIγ (Tet-on)) or (ii) the CaMKII shRNA generating plasmids, were cultured in liquid suspension in the presence or absence of DOX as indicated, and cell counts obtained after 48 hours. (D) Lysates from K562 cells transduced with the indicated vectors were subjected to Western blots utilizing the indicated antibodies. For lanes 2 and 4 doxycycline (DOX) treatment was for two days.
as §4

[3] = system: autophosphorylated CaMKIIγ in NB4 cells; test: Western blot of CaMKIIγ autophosphorylation in NB4 cells; type: cell-based, human; settings: for activated, autophosphorylated CaMKIIγ level: single agent, ATRA 1 μM, arsenic trioxide 1 uM
Procedure: as §1, §2, §3, §4

K-562 cells = test: Differentiation of K-562 cells; type: cell-based, human
Source text: Pharmacological CaMK inhibitors trigger myeloid leukemia cell differentiation. Particularly compelling evidence for the physiological importance of the CaMKII—mediated regulation of RAR activity is our experimental observation that KN-62, a pharmacological inhibitor of the CaMKs, enhances both RAR transcriptional activity (FIG. 1B) and the differentiation of certain myeloid leukemia cell lines (FIG. 7). Acute myelogenous leukemia (AML) is a heterogenous disease, and successful therapy with RA has been generally confined to those leukemias harboring RARα chromosome translocations.
Inhibitors of CaMKII inhibit the proliferation of myeloid leukemia cell lines. To determine whether inhibiting CaMKIIγ activity might have any effect on myeloid leukemia cell proliferation/viability, we treated K562 cells with the CaMK inhibitor KN93. […] The KN93 induced inhibition of K562 cell proliferation was accompanied by a reduction in the levels of the activated (autophosphorylated) CaMKIIγ (FIG. 12A, row 1).

CaMKs = settings: inhibitors interfere with binding of Ca++/CaM to the CaMKs; cited from earlier work

| SMILES | total CaMKIIγ level [1] | activated, autophosphorylated CaMKIIγ level [1] | activated, autophosphorylated CaMKIIγ level [2] | total CaMKIIγ level [3] | activated, autophosphorylated CaMKIIγ level [3] | differentiation of K-562 (K-562 cells; preliminary studies, not shown) | autophosphorylated CaMKIIγ level ([3]; KN62 combined with relatively low concentrations of RA, five days) | pIC50 (CaMKs) | morphologic differentiation of K562 (K-562 cells; KN93 treated K562) |
| --- | --- | --- | --- | --- | --- | --- | --- | --- | --- |
| CC1=C(/C=C/C(C)=C/C=C/C(C)=C/C(=O)O)C(C)(C)CCC1 [ATRA, All-trans retinoic acid] | essentially unchanged | marked decrease | did not exhibit any decrease | essentially unchanged | marked decrease |  |  |  |  |
| CN([C@@H](Cc1ccc(OS(=O)(=O)c2cccc3cnccc23)cc1)C(=O)N1CCN(c2ccccc2)CC1)S(=O)(=O)c1cccc2cnccc12 [KN-62] | did not induce any significant changes | marked reduction |  |  | little effect | does not induce | reduction | 6.05 |  |
| COc1ccc(S(=O)(=O)N(CCO)c2ccccc2CN(C)C/C=C/c2ccc(Cl)cc2)cc1 [KN-93] |  |  | time dependent reduction |  |  |  |  | 6.05 | no effect |
